Measurements: article PMC6764291 (Frontiers in Oncology, 2019)
“Also recorded” adds a separate entry of the source. Where two headings read alike, the source gives them in different places.

Key:
cleaved caspase-3 [1] = experiment: Western Blot cleaved caspase-3 expression, HCT116; type: cell-based
Description: (§1) Cells were irradiated using ^137Cs gamma-ray photons at a dose-rate of ~1 Gy/min (Best Theratronics Gammacell® 40Exactor, Springfield, USA).
(§2) Whole-cell lysates were prepared according to standard protocols. Protein concentrations were measured using a DeNovix DS-11 spectrophotometer (DeNovix Inc., Wilmington, DE, USA). Samples were separated on 4–12% Bis-Tris SDS gels and transferred to a nitrocellulose membrane (ThermoFisher Scientific, Uppsala, Sweden) by wet-transfer blotting. The membrane was blocked for 1 h in PBS with 5% BSA before incubation with primary antibodies targeting p53, caspase-3, NaK-ATPase and GLB1 (DO-1 (ab1101), ab13847, ab76020 and ab128993, AbCam, Cambridge, UK) and β-actin (A5441, Sigma Aldrich Sweden, Stockholm, Sweden) at 4°C overnight. After washing with PBS with 1% Tween-20, the membrane was incubated with respective and species-specific Horse Radish Peroxidase-labeled secondary antibody (ThermoFisher Scientific, Waltham, MA, USA) and stained with electro-chemiluminescent solution (Immobilon, Millipore, Bedford, USA).

Noxa [2] = experiment: Flow cytometry Noxa expression, HCT116; type: cell-based
Description: as §1
(§3) Cells were collected and fixed in 70% ethanol at 6, 12, 24, 48, 72, and 96 h post-irradiation and stored at −20°C. For cell cycle analyses, 6, 12, 24, and 48 h samples were rehydrated and washed twice with PBS and stained with DAPI (Sigma Aldrich Sweden, Stockholm, Sweden) using 1 μg/ml for 30 min. 24, 48, 72, and 96 h samples were stained with caspase-3 and Noxa (ab13847 (1:500) and ab13654 (1:1,000), AbCam, Cambridge, UK) overnight at 4°C, followed by incubation with fluorescent labeled secondary antibodies for 90 min (ab 1:400) at room temperature. Analyses were performed using a BD LSR Fortessa flow cytometer (Becton Dickinson Biosciences, San Jose, USA). Data analyses for cleaved caspase-3 and Noxa were performed with BD FACSDiVa (Becton Dickinson Biosciences, San Jose, USA), while cell cycle analyses of exclusively viable cells were performed using FlowJo (Becton, Dickinson Biosciences, San Jose, USA). Coefficient of variation (CV) values, were below seven for all samples.

p53^−/− tumors = conditions: mice, PM2 combined with radiotherapy; cited from earlier work
p53 = experiment: Western Blot p53 expression, HCT116; type: cell-based; conditions: n ≥ 3
Description: as §1, §2

HCT116 = experiment: XTT cell viability, HCT116; type: cell-based
Description: The human squamous cell carcinoma cell lines UM-SCC-74A and UM-SCC-74B were kindly provided by Professor TE Carey (University of Michigan, USA) and cultured in Dulbecco's Modified Eagle Medium (DMEM) with 10% fetal bovine serum, 1% L-glutamine, 1% antibiotics (100 IU penicillin and 100 μg/ml streptomycin) as well as 1% non-essential amino acids (all from Biochrom Kg, Berlin, Germany). UT-SCC-45 (kindly provided by Dr. R. Grenman, Turku University Central Hospital, Finland) was cultured in DMEM with the abovementioned additives. HCT116 and A431 were purchased from American Type Culture Collection (Manassas, VA, USA). HCT116 was cultured in McCoy's modified Eagle medium with 10% fetal bovine serum, 1% L-glutamine and 1% antibiotics (100 IU penicillin and 100 μg/ml streptomycin) and A431 was cultured in Ham's F10 with the same additives. H314 was purchased from the European Collection of Authenticated Cell Cultures (Salisbury, UK) in DMEM/Ham's F12 (1:1) with the abovementioned additives. Cells were incubated at 37°C with 5% CO2, and cultivated for no longer than 2 months at a time.
as §1
Five-hundred to ten thousands cells were seeded in flat-bottomed 96-well plates and incubated for 48 h prior to irradiation with 2Gy. […] Cells were incubated at 37° for 4–5 days until 80–90% confluence had been obtained. A mix of XTT Activation Reagent and XTT Reagent was added according to the American Type Culture Collection 30–1011 K protocol (Manassas, VA, USA). Plates were incubated for up to 6 h at 37° and absorbance was measured by using a BioMark Microplate Reader (Bio-Rad Laboratories AB, Solna, Sweden).
GraphPad Prism version 6.07 (GraphPad Software, San Diego, USA) was used for data processing and analysis. p-values were determined using unpaired student's t-test for comparison between two groups or one-way ANOVA followed by Tukey's multiple comparisons test, with p < 0.05 (^*), p < 0.01 (^**), p < 0.001 (^***), and p < 0.0001 (^****). For XTT assays cell viability was normalized for irradiated and unirradiated samples separately. […] CDI ≤ 0.7 equaled significant synergistic effect, CDI ≤ 1 equaled additive effect and CDI > 1 equaled antagonistic effect ([29]).

H314 = experiment: XTT cell viability, H314; type: cell-based; conditions: n ≥ 4
Description: (§4) The human squamous cell carcinoma cell lines UM-SCC-74A and UM-SCC-74B were kindly provided by Professor TE Carey (University of Michigan, USA) and cultured in Dulbecco's Modified Eagle Medium (DMEM) with 10% fetal bovine serum, 1% L-glutamine, 1% antibiotics (100 IU penicillin and 100 μg/ml streptomycin) as well as 1% non-essential amino acids (all from Biochrom Kg, Berlin, Germany). UT-SCC-45 (kindly provided by Dr. R. Grenman, Turku University Central Hospital, Finland) was cultured in DMEM with the abovementioned additives. HCT116 and A431 were purchased from American Type Culture Collection (Manassas, VA, USA). […]
(§5) Five-hundred to ten thousands cells were seeded in flat-bottomed 96-well plates and incubated for 48 h prior to irradiation with 2Gy. […] Plates were incubated for up to 6 h at 37° and absorbance was measured by using a BioMark Microplate Reader (Bio-Rad Laboratories AB, Solna, Sweden).
(§6) GraphPad Prism version 6.07 (GraphPad Software, San Diego, USA) was used for data processing and analysis. p-values were determined using unpaired student's t-test for comparison between two groups or one-way ANOVA followed by Tukey's multiple comparisons test, with p < 0.05 (^*), p < 0.01 (^**), p < 0.001 (^***), and p < 0.0001 (^****). […]

Noxa [3] = experiment: Flow cytometry Noxa expression, UM-SCC-74B; type: cell-based, human; conditions: 20 μM PM2, 72 h
Description: as §1, §3

cleaved caspase-3 [4] = experiment: Flow cytometry cleaved caspase-3, HCT116; type: cell-based
Description: as §1, §3

UT-SCC-45 = experiment: XTT cell viability, UT-SCC-45; type: cell-based; conditions: n ≥ 4
Description: as §4, §5, §6

CC(=O)N[C@H](C(=O)N[C@@H](CO)C(=O)N[C@@H](Cc1ccccc1)C(=O)N[C@]1(C)CCCCCCC=CCCC[C@@](C)(C(N)=O)NC(=O)[C@H](CC(C)C)NC(=O)[C@H](CC(C)C)NC(=O)[C@H](C)NC(=O)[C@H](Cc2c[nH]c3ccccc23)NC(=O)[C@H](Cc2ccc(O)cc2)NC(=O)[C@H](CCC(=O)O)NC1=O)[C@@H](C)O [PM2]
increase in cleaved caspase-3 levels (cleaved caspase-3 [1]; 20 μM PM2, 96 h (representative blots), normalized to controls, n ≥ 3): three-fold | cleaved caspase-3 expression (cleaved caspase-3 [1]; 20 μM PM2-treated samples, n ≥ 3): increase in expression | cleaved caspase-3 expression, combination (cleaved caspase-3 [1]; 2 Gy + 20 μM PM2, n ≥ 3): predominant | Noxa expression (Noxa [2]; 20 μM PM2, 72 h): distinct increases | Noxa increase, combination compared to PM2 therapy alone (Noxa [2]; 2 Gy + 20 μM PM2, p ≤ 0.01, n ≥ 3): 4 fold | effects on p53^−/− tumors (p53^−/− tumors): negligible | p53 expression (p53; 20 μM PM2, 24 h): increased expression of p53 | p53 expression, combination versus PM2 alone (p53; 2 Gy + 20 μM PM2, 24 h): significant increase; also recorded: further increased wt p53 levels | PM2 effect (HCT116; 0–20 μM PM2, 0 Gy, wild-type p53, HPV negative, n = 6): decreased significantly the viability and Yes | average viability reduction (HCT116; 20 μM PM2, 0 Gy, compared to untreated controls): 75% | IC50 (HCT116; PM2 added 3 h after 2 Gy EBRT, normalized to 2 Gy, 0 μM PM2, n = 6, read-out: IC50 of the combination treatment): 12 µM | lowest PM2 dose with significant decrease of viability (HCT116; PM2 alone): ~ 10 μM | IC50 (HCT116; PM2 alone (0 Gy), 4–5 days, n = 6, read-out: IC50 (cell viability)): 14 µM | Significant effect of combination (HCT116; PM2 with 2 Gy EBRT, n = 6): Yes | PM2 effect (H314; 0–20 μM PM2, 0 Gy, two p53 mutations, HPV negative): did not affect and No | Significant effect of combination (H314; PM2 with 2 Gy EBRT): No | Noxa expression (Noxa [3]): distinct increases | cleaved caspase-3 expression (cleaved caspase-3 [4]; 20 μM PM2, 72 h): distinct increases | cleaved caspase-3 increase compared to controls (cleaved caspase-3 [4]; 20 μM PM2-treated, peak at 96 h, n ≥ 3): 10 fold | PM2 effect (UT-SCC-45; 0–20 μM PM2, 0 Gy, wild-type p53 (exon 4–8), HPV positive): unresponsive and No response and No | Significant effect of combination (UT-SCC-45; PM2 with 2 Gy EBRT): unresponsive and No response and No
